In assay [1] the test system is Tetrahymena pyriformis W strain. The assay can be described thus: Antiprotozoal activity, MIC. The assay is classed as cell-based. The conditions noted are these: broth dilution method, pH 7.0, 28° C., 44 to 48 hours; for MIC: Tetrahymena pyriformis, read-out: MIC against Tetrahymena pyriformis W strain. As for the experimental part:
The antiprotozoal activity values as shown in Table 4 were assayed using Tetrahymena pyriformis W strain as the test organism and an assay medium composed of 20 g of tryptose peptone (manufactured by Difco), 1 g of yeast extract, 2 g of glucose, 1000 ml of distilled water and 10 ml of 1M phosphate buffer (pH 7.0). The incubation was continued at 28° C. for 44 to 48 hours and the minimum inhibitory concentration (MIC) of the compounds of this invention was determined by the broth dilution method.
A general note: Dilution methods test growth across graded concentrations, often in twofold steps.

Assay [2] deals with sarcoma 180. The assay can be described thus: Effects against sarcoma 180 (survival rate, ICR mice). Format: in vivo. The conditions noted are these: 1 mg per mouse i.p., four days before 1×10^5 cells of sarcoma 180 i.p.; vs physiological saline control.
Assay [3] relates to Aspergillus niger IFO-6341. Nature of the assay: Antifungal activity, MIC. The assay is classed as cell-based. The conditions noted are these: IFO6341, test organism 1, 1% glucose-bouillon agar medium, serial dilution method. As for the experimental part:
The antimycotic (antifungal) activity values as shown in Table 3 were assayed on various organisms including phytopathogenic microorganisms using 1% glucose-bouillon agar medium, and the minimum inhibitory concentration (MIC) was determined by the serial dilution method.

In assay [4] the test system is Penicillium citrinum IFO-6352. Nature of the assay: Antifungal activity, MIC. The assay is classed as cell-based.
Assay [5] concerns Saccharomyces cerevisiae IFO-0209. Nature of the assay: Antifungal activity, MIC. The assay is classed as cell-based.
Assay [6] relates to Pyricularia oryzae IFO-5279. Nature of the assay: microbe, parasite or virus in culture. Format: cell-based. The conditions noted are these: IFO5279.
The subject of assay [7] is Helminthosporium oryzae IFO-7503. The assay can be described thus: Antifungal activity, MIC. Format: cell-based. The conditions noted are these: Bipolaris oryzae, IFO7503.
The test system of assay [8] is Gibberella fujiknroi. Nature of the assay: Antifungal activity, MIC. The assay is classed as cell-based.
Assay [9] has as its system Botrytis cinerea IFO-5365. Nature of the assay: Antifungal activity, MIC. The assay is classed as cell-based.
For assay [10], the system named is Helminthosporium sigmoideum IFO-4867. Nature of the assay: Antifungal activity, MIC. Format: cell-based. The conditions noted are these: Nakataea oryzae, IFO4867.
The test system of assay [11] is Colletctrichum lagenarium IFO-6207. Nature of the assay: Antifungal activity, MIC. The assay is classed as cell-based.
For assay [12], the system named is MM46 carcinoma. Nature of the assay: Effects against MM46 (surviving mice, C3H/He mice). The assay is classed as in vivo. The conditions noted are these: 24th day after transplantation of 1×10^4 MM46 cells i.p.; 250 μg i.p., eight times in total. As for the experimental part:
To each of C3H/He mice group was transplanted intraperitoneally 1×10^4 cells of MM46 carcinoma. Four times from five days to two days before the transplantation and four times from two days to five days after the transplantation, eight times in total, 250 μg of the test compound dissolved in 0.2 ml of physiological saline was administered intraperitoneally. The number of mice surviving on the 24th day after transplantation of the carcinoma cells was compared with that of the control group administered with saline.

Setting [13] is: IFO6352, test organism 2, 1% glucose-bouillon agar medium, serial dilution method, read-out: MIC.
Where [14] appears, read: test organism 8, 1% glucose-bouillon agar medium, serial dilution method, read-out: MIC.
[15] abbreviates: IFO0209, test organism 3, 1% glucose-bouillon agar medium, serial dilution method, read-out: MIC.
Where [16] appears, read: IFO5365, test organism 7, 1% glucose-bouillon agar medium, serial dilution method, read-out: MIC.
The mark [17] stands for this setting: test organism 9, 1% glucose-bouillon agar medium, serial dilution method, read-out: MIC.

Read-outs that look alike come from different tables or passages of the source.

As to “2-Trimethylammonioethyl cetyl phosphonate [Production Example 8]”, the “MIC against Tetrahymena pyriformis W strain” value in assay [1] was determined as 2 µg/mL.

For the molecule `CCCCCCCCCCCCCCOP(=O)([O-])OCC[N+](C)(C)C` [Production Example 1, Tetradecyl 2-trimethylammonioethyl phosphate], the “Survival Rate (T/C)” value in assay [2] is 217. For the same molecule, the MIC is 12.5 µg/mL in assay [3]; 6.25 µg/mL in assay [4] (IFO6352); 12.5 µg/mL in assay [5] (IFO0209); 3.12 µg/mL in assay [6]; 12.5 µg/mL in assay [7]; 25 µg/mL in [8]. Also, the MIC in [9] (IFO5365) turned out to be 25 µg/mL; in assay [10], 6.25 µg/mL; in [11] it was 3.12 µg/mL; in assay [1], 2 µg/mL.

On to `CCCCCCCCCCCCCCOP(=O)([O-])OCC[n+]1ccccc1` [Production Example 2, Tetradecyl 2-pyridinioethyl phosphate], for which, in assay [2], the “Survival Rate (T/C)” value was 152. In addition, the MIC worked out at 25 µg/mL in assay [3]; 12.5 µg/mL in assay [4] (setting [13]); 50 µg/mL in [5] (IFO0209); 3.12 µg/mL in assay [6]; 25 µg/mL in [7]; 25 µg/mL in assay [8]. Besides, the MIC in assay [9] (IFO5365) is 50 µg/mL; in assay [10] (setting [14]), 12.5 µg/mL; in [11], 3.12 µg/mL; in assay [1], no less than 4 µg/mL.

Consider `CCCCCCCC/C=C\CCCCCCCCOP(=O)([O-])OCC[N+](C)(C)C` [Production Example 3, Oleyl 2-trimethylammonioethyl phosphate], for which, in assay [2], the “Survival Rate (T/C)” value was 302. Further, the “Surviving mice/Test mice” value in assay [12] is 3/5. The MIC in assay [3] worked out at 12.5 µg/mL; in assay [4] (setting [13]), 25 µg/mL; in [5] (setting [15]), 6.25 µg/mL; in [6], 1.56 µg/mL; in assay [7], 12.5 µg/mL; in [8], 12.5 µg/mL. The MIC turned out to be 3.12 µg/mL in assay [9] (setting [16]), 1.56 µg/mL in assay [10], 50 µg/mL in assay [11] (setting [17]) and 0.4 µg/mL in assay [1].

`CCCCCCCC/C=C\CCCCCCCCOP(=O)([O-])OCC[n+]1ccccc1` [Production Example 4, Oleyl 2-pyridinioethyl phosphate]: in [2], the “Survival Rate (T/C)” value is listed as 308. Moreover, the “Surviving mice/Test mice” value in [12] is recorded as 2/5. Moreover, the MIC in assay [3] was determined as 50 µg/mL; in assay [4] (setting [13]), 25 µg/mL; in assay [5] (setting [15]) it was 25 µg/mL; in assay [6], 3.12 µg/mL; in assay [7], 50 µg/mL; in [8] (test organism 6, 1% glucose-bouillon agar medium, serial dilution method, read-out: MIC) it was 25 µg/mL. For the same molecule, the MIC in assay [9] (setting [16]) is 6.25 µg/mL; in assay [10] (setting [14]), 6.25 µg/mL; in assay [11], 50 µg/mL.

Regarding `CCCCCCCCCCCCCCCCCCCCCCOP(=O)([O-])OCC[N+](C)(C)C` [Production Example 5, Docosyl trimethylammonioethyl phosphate], in assay [2], the “Survival Rate (T/C)” value was 167. Moreover, the MIC in [1] was greater than 4 µg/mL.

As to `CCCCCCCCCCCCCCCCCCOP(=O)([O-])OCC[N+](C)(C)C` [Production Example 6, Stearyl 2-trimethylammonioethyl phosphate], the “Survival Rate (T/C)” value in [2] turned out to be 200. Also, the MIC in [3] is 25 µg/mL; in assay [4] (IFO6352), 25 µg/mL; in assay [5] (IFO0209) it was 12.5 µg/mL; in assay [6], 6.25 µg/mL; in assay [7], 50 µg/mL; in assay [8], 50 µg/mL. In addition, the MIC in assay [9] (IFO5365) is 6.25 µg/mL; in [10], 3.12 µg/mL; in assay [11] (setting [17]), 100 µg/mL; in assay [1] it was no more than 1 µg/mL.

On to `CC(C)CCCC(C)CCCC(C)CCCC(C)CCOP(=O)([O-])OCC[N+](C)(C)C` (stereo not shown) [Production Example 7, 3,7,11,15-Tetramethylhexadecyl 2-trimethylammonioethyl phosphate], for which the MIC in assay [6] stood at 1.56 µg/mL; in assay [8], 6.25 µg/mL; in assay [9] (IFO5365), 25 µg/mL; in [11] (setting [17]), 100 µg/mL; in [1], 4 µg/mL.

For the molecule `CCCCCCCCCCCCCCC/C=C/COP(=O)([O-])OCC[N+](C)(C)C` [Production Example 10, (E)-2-Octadecenyl 2-trimethylammonioethyl phosphate], the MIC in [1] was no more than 1 µg/mL.

`CCCCCCCCC(CCCCCCCC)OP(=O)([O-])OCC[N+](C)(C)C` [Production Example 11, (1-Octyl)nonyl 2-trimethylammonioethyl phosphate]: the “Survival Rate (T/C)” value in assay [2] worked out at 282. Also, the MIC in assay [1] was no more than 1 µg/mL.
